Read-outs that look alike come from different tables or passages of the source.
Key:
PRC2 containing wt EZH2 = PRC2 containing wt EZH2 (Homo sapiens (Human), UniProt Q15910); assay: EZH2 biochemical assay (IC50), 3H-SAM incorporation into biotinylated H3 peptide; conditions: 30 pM PRC2 containing wt EZH2, 3-5 h pre-incubation
Protocol: EZH2 biochemical assay (IC50): Compound potencies were assessed through incorporation of ^3H-SAM into a biotinylated H3 peptide. Specifically, 30 pM PRC2 containing wt EZH2 (pentameric complex prepared in-house) was pre-incubated with 450 nM SAM, 450 nM ^3H-SAM, 2 μM H3K27me3 activating peptide (H2N-[…](Kme3)[…]-amide) and compounds (as 10 point duplicate dose response titrations in DMSO, final assay 0.8% DMSO (v/v)) for 3-5 h in 50 mM Tris (pH 8.5), 1 mM DTT, 0.07 mM Brij-35, 0.1% BSA, and 0.8% DMSO in a total volume of 12.5 μl. Reaction was initiated with biotinylated H3 substrate peptide (H2N-[…](Kme1)[…]-NTPEGBiot) as a 2 μM stock in 12.5 μl of buffer and allowed to react at room temperature for 18-22 h. Quenching was accomplished by addition of 20 μl of STOP solution (50 mM Tris (pH 8.5), 200 mM EDTA, 2 mM SAH). 35 μl of the quenched solution was transferred to streptavidin coated FlashPlates (PerkinElmer), incubated 1-2 h, washed, and read in a TopCount Reader (PerkinElmer). IC50s were calculated in Genedata Screener using non-linear least square four parameter fits, where the four parameters were IC50, Hill slope, pre-transitional baseline (0% INH), and post-transitional baseline (100% INH).
IC50 values are reported as follows: “A” indicates an IC50 value of less than 0.5 nM; “B” indicates an IC50 value of 0.5 nM to 5 nM; “C” indicates an IC50 value of greater than 5 nM for each enzyme; and “ND” is not determined.

[1] = tested on: H3K27me3 mark in HeLa cells (EZH2); assay: H3K27me3 Alpha Hela Assay (AlphaLISA); type: cell-based; conditions: HeLa cells, 72 hrs, read-out: EZH2 Cell H3K27me3 Alpha HeLa (EC50 K27me3)
Protocol: H3K27me3 Alpha Hela Assay (AlphaLISA). Ten different doses of each test compound (in a series of 3-fold dilutions) were plated in duplicate 384-well tissue culture treated plates (Catalog #6007680; Perkin Elmer, Waltham, Mass.). Hela cells grown in culture were trypsinized and counted using a Countess® cell counter (Catalog #C10281; Life Technologies, Grand Island, N.Y.). Cell were diluted to 67,000 cells per mL in 10% DMEM (Catalog #10569-010 Life Technologies, Grand Island, N.Y.) and 15 μL (1,000 cells) were plated into each well using the Biotek MicroFlo™ Select Dispenser (BioTek Instruments, Inc. Vermont, USA),) of the 384-well plate. Plates were incubated at 37° C./5% CO2 for 72 hrs. One of the duplicate plates was processed for HeLa assay and the other for viability.
5 μL of Cell-Histone Lysis buffer (1×) (Catalog #AL009F1 Perkin Elmer; Waltham, Mass.) per well was added to the plate processed for AlphaLISA and the plate was incubated at RT for 30 minutes on a plate shaker with low speed (Model #4625-Q Thermo Scientific; Waltham, Mass.). Then, 10 μL per well Histone Extraction buffer (catalog #AL009F2; Perkin Elmer; Waltham, Mass.) was added and the plate further incubated at RT for 20 min on plate shaker with low speed. Next, 10 μL of 5× mix of anti-K27me3 acceptor beads plus Biotinylated anti-Histone H3 (C-ter) Antibody (diluted to 3 nM final) (Catalog #AL118 Perkin Elmer; Waltham, Mass.) was added in each well. Dilution of the acceptor beads and anti-Histone H3 was done in 1× Histone Detection buffer (Catalog #AL009F3 Perkin Elmer; Waltham, Mass.) which was produced by diluting the 10× stock provided. The plate was sealed with an aluminum plate sealer and incubated at 23° C. for 60 min. Next, 10 μL 5× solution of Streptavidin Donor beads were added (Catalog #6760002 Perkin Elmer; Waltham, Mass.) (20 μg/mL final in 1× Histone Detection Buffer), =plate was sealed with Aluminum plate sealer and incubated at 23° C. for 30 min. The plates were then read using an EnVision-Alpha Reader (model #2104 Perkin Elmer; Waltham, Mass.).
Data from both assays was analyzed using Genedata (Basel, Switzerland). Data files were imported to Genedata and assay conditions were specified. A unique Analysis ID was created and the data files analysed to measure dose-dependent inhibition of H3K27me3 mark and cell viability respectively. Readout of DMSO wells were used to normalize the data. Resulting curves were fitted using Smart fit application (Genedata; Basel, Switzerland). The data was checked for quality, validated and integrated in excel format using Stardrop (Optibruim, Cambridge, UK).
EC50 values are reported as follows: “A” indicates an EC50 value of less than 10 nM; “B” indicates an EC50 value of 10 nM to 100 nM; “C” indicates an EC50 value of greater than 100 nM; and “ND” is not determined.

PRC2 containing wt EZH2, sequence (Q15910 whole entry): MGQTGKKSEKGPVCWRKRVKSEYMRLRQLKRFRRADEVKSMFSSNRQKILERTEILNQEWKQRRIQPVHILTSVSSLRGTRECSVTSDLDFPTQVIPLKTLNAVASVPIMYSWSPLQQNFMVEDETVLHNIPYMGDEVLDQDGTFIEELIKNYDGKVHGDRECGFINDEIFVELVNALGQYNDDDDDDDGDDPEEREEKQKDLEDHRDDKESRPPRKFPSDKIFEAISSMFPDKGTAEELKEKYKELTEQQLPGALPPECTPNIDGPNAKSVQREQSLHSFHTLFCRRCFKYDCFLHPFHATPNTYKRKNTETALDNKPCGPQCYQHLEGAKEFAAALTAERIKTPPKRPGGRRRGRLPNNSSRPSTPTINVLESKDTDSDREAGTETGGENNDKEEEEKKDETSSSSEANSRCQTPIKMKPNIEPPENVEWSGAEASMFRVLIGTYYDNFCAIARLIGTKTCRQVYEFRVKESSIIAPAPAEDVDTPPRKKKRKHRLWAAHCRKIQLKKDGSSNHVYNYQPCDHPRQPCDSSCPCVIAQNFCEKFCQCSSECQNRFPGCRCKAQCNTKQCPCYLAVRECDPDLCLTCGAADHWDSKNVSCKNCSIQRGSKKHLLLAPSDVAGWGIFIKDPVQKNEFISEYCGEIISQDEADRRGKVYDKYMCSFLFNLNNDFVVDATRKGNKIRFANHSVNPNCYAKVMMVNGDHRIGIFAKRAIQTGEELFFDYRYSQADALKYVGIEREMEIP
PRC2 containing wt EZH2, sequence (O75530 whole entry partner): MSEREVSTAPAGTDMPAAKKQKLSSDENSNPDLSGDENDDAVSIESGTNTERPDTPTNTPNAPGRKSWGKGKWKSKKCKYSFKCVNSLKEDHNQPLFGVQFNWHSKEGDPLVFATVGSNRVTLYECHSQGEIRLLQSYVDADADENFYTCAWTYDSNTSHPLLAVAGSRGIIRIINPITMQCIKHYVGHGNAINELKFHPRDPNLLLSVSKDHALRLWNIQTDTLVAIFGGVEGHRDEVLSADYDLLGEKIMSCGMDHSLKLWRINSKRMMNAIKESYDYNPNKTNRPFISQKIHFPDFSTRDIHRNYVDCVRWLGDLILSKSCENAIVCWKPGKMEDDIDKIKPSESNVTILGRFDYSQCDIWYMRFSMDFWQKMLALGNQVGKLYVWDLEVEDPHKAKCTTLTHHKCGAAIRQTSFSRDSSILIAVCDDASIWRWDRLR
PRC2 containing wt EZH2, sequence (Q15022 whole entry partner): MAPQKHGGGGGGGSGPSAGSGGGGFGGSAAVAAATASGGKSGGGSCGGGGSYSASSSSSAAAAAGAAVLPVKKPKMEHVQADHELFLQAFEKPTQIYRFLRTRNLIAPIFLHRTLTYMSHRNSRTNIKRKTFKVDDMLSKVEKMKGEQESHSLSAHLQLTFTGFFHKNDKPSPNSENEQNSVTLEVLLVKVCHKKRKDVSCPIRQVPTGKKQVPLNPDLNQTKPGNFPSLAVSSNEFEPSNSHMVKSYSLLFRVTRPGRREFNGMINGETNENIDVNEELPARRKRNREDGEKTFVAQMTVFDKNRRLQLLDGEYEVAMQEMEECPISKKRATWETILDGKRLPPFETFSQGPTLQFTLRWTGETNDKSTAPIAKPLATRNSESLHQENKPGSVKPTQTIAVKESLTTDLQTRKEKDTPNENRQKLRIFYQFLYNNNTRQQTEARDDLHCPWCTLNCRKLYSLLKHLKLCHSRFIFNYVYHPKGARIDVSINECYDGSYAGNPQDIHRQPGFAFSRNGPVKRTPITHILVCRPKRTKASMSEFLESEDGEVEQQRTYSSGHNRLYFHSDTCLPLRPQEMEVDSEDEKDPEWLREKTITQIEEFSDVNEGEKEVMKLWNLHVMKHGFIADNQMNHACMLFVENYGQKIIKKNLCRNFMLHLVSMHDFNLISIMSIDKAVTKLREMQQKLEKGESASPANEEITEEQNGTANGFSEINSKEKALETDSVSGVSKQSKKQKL
PRC2 containing wt EZH2, sequence (Q09028 whole entry partner): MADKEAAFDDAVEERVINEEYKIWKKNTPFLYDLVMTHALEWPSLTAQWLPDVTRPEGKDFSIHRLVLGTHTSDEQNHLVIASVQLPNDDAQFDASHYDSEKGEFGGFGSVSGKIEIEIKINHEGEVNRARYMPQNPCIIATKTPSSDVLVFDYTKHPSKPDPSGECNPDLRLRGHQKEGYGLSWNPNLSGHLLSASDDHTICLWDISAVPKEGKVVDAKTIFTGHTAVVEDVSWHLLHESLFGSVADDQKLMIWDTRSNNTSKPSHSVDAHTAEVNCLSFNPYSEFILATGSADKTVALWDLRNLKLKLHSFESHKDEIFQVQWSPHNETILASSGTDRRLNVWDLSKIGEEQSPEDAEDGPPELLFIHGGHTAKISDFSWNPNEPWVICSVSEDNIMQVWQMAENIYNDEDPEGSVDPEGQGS
PRC2 containing wt EZH2, sequence (Q6ZN18 whole entry partner): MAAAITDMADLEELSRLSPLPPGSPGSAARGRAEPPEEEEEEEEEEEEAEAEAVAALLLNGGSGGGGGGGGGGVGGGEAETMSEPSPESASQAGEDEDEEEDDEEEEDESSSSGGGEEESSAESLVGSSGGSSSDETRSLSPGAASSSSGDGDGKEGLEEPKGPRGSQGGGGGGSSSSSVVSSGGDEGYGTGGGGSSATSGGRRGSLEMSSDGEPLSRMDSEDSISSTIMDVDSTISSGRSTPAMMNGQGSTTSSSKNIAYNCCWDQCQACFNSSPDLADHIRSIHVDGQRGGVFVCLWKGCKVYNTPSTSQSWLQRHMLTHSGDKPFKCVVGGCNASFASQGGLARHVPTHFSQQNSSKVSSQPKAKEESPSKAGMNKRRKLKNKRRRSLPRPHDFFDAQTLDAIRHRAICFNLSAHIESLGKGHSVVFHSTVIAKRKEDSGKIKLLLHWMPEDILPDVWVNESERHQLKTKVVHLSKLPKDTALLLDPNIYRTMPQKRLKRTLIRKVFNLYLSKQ

Compound | IC50 (PRC2 containing wt EZH2; EZH2 (IC50)) [nM] | EC50 ([1]; Homo sapiens, HeLa, 72 h) [nM] | EC50 [1] [nM] | IC50 (PRC2 containing wt EZH2; read-out: EZH2 (IC50)) [nM] | EC50 ([1]; listed as 62) [nM]
CSc1cc(C)[nH]c(=O)c1CNC(=O)c1c(C)n([C@H](C)C2CCC(F)(F)CC2)c2ccccc12 [Example 45, (R)-1-(1-(4,4-difluorocyclohexyl)ethyl)-2-methyl-N-((6-methyl-4-(methylthio)-2-oxo-1,2-dihydropyridin-3-yl)methyl)-1H-indole-3-carboxamide] | < 0.5 | < 10 |  |  | 
CSc1cc(C)[nH]c(=O)c1CNC(=O)c1c(C)n([C@H](C)C2CCN(CCO)CC2)c2ccccc12 [Example 52, (R)-1-(1-(1-(2-hydroxyethyl)piperidin-4-yl)ethyl)-2-methyl-N-((6-methyl-4-(methylthio)-2-oxo-1,2-dihydropyridin-3-yl)methyl)-1H-indole-3-carboxamide] | < 0.5 | > 100 |  |  | 
CSc1cc(C)[nH]c(=O)c1CNC(=O)c1c(C)n([C@H](C)C2CCC(N3CC(F)C3)CC2)c2cc(F)ccc12 (stereo partly drawn) [Example 83, (R)-6-fluoro-1-(1-(4-(3-fluoroazetidin-1-yl)cyclohexyl)ethyl)-2-methyl-N-((6-methyl-4-(methylthio)-2-oxo-1,2-dihydropyridin-3-yl)methyl)-1H-indole-3-carboxamide] | < 0.5 | < 10 |  |  | 
CSc1cc(C)[nH]c(=O)c1CNC(=O)c1c(C)n([C@H](C)C2OCC(N3CCC3(C)C)CO2)c2ccccc12 (single isomer, unassigned) [15 (isomer 1)] | < 0.5 |  | < 10 |  | 
COC1(C)CN(C2CCC([C@@H](C)n3c(C)c(C(=O)NCc4c(SC)cc(C)[nH]c4=O)c4ccccc43)CC2)C1 (single isomer, unassigned) [90 (isomer 2)] |  |  | > 100 | < 0.5 | 
CSc1cc(C)[nH]c(=O)c1CNC(=O)c1c(C)n([C@H](C)C2CCC(N(C)C)CC2)c2ncccc12 (single isomer, unassigned) [51 (isomer 2)] |  |  | > 100 | < 0.5 | 
CCOC1CN(C2CCC([C@@H](C)n3c(C)c(C(=O)NCc4c(SC)cc(C)[nH]c4=O)c4cccnc43)CC2)C1 (single isomer, unassigned) [91 (isomer 1)] |  | < 10 |  | < 0.5 | 
CSc1cc(C)[nH]c(=O)c1CNC(=O)c1c(C)n([C@H](C)C2CCC(N(C)C)CC2)c2ncccc12 (single isomer, unassigned) [51 (isomer 1)] |  |  | 10 to 100 | < 0.5 | 
CSc1cc(C)[nH]c(=O)c1CNC(=O)c1c(C)n([C@H](C)C2CCN(CC(F)(F)F)CC2)c2ccccc12 [Example 12, (R)-2-methyl-N-((6-methyl-4-(methylthio)-2-oxo-1,2-dihydropyridin-3-yl)methyl)-1-(1-(1-(2,2,2-trifluoroethyl)piperidin-4-yl)ethyl)-1H-indole-3-carboxamide] | < 0.5 | < 10 |  |  | 
CSc1cc(C)[nH]c(=O)c1CNC(=O)c1c(C)n([C@H](C)C2CCC(N3CC(OC(F)(F)F)C3)CC2)c2ncncc12 (single isomer, unassigned) [123 (isomer 2)] |  |  | < 10 | < 0.5 | 
CSc1cc(C)[nH]c(=O)c1CNC(=O)c1c(C)n([C@H](C)C2CCC(NC3COC3)CC2)c2ccccc12 (single isomer, unassigned) [2 (isomer 2)] |  |  | 10 to 100 | < 0.5 | 
CSc1cc(C)[nH]c(=O)c1CNC(=O)c1c(C)n([C@H](C)C2CCN(CCC(F)(F)F)CC2)c2ccccc12 [Example 88, (R)-2-methyl-N-((6-methyl-4-(methylthio)-2-oxo-1,2-dihydropyridin-3-yl)methyl)-1-(1-(1-(3,3,3-trifluoropropyl)piperidin-4-yl)ethyl)-1H-indole-3-carboxamide] | < 0.5 | 10 to 100 |  |  | 
CSc1cc(C)[nH]c(=O)c1CNC(=O)c1c(C)n([C@H](C)c2cnc(C)nc2)c2ccccc12 [Example 35, (R)-2-methyl-N-((6-methyl-4-(methylthio)-2-oxo-1,2-dihydropyridin-3-yl)methyl)-1-(1-(2-methylpyrimidin-5-yl)ethyl)-1H-indole-3-carboxamide] |  | > 100 |  | > 5 | 
CCS(=O)(=O)N1CCC([C@@H](C)n2c(C)c(C(=O)NCc3c(SC)cc(C)[nH]c3=O)c3ccccc32)CC1 [Example 146, (R)-1-(1-(1-(ethylsulfonyl)piperidin-4-yl)ethyl)-2-methyl-N-((6-methyl-4-(methylthio)-2-oxo-1,2-dihydropyridin-3-yl)methyl)-1H-indole-3-carboxamide] |  | < 10 |  | < 0.5 | 
CSc1cc(C)[nH]c(=O)c1CNC(=O)c1c(C)n([C@H](C)C2CCC(O)CC2)c2cc(F)ccc12 (single isomer, unassigned) [44 (isomer 1)] | < 0.5 | < 10 |  |  | 
CSc1cc(C)[nH]c(=O)c1CNC(=O)c1c(C)n([C@H](C)C2CCC(N3CC(OC4CC4)C3)CC2)c2c(F)cccc12 (single isomer, unassigned) [113 (isomer 1)] |  | < 10 |  | < 0.5 | 
COC1CN(C2CCC([C@@H](C)n3c(C)c(C(=O)NCc4c(SC)cc(C)[nH]c4=O)c4cc(Cl)cnc43)CC2)C1 (single isomer, unassigned) [106 (isomer 1)] |  | < 10 |  | < 0.5 | 
CO[C@@H]1CN(C2CCC([C@@H](C)n3c(C)c(C(=O)NCc4c(SC)cc(C)[nH]c4=O)c4cccnc43)CC2)C[C@H]1F (single isomer, unassigned) [104 (isomer 1)] |  |  | 10 to 100 | 0.5 to 5 | 
CSc1cc(C)[nH]c(=O)c1CNC(=O)c1c(C)n([C@H](C)C2CCC(OC(=O)C(C)C)CC2)c2ccccc12 (single isomer, unassigned) [144 (isomer 2)] |  |  | < 10 | < 0.5 | 
CSc1cc(C)[nH]c(=O)c1CNC(=O)c1c(C)n([C@H](C)C2CCC(N3CC(O)(C(C)C)C3)CC2)c2ncccc12 (stereo partly drawn) [Example 158, 1-((R)-1-(4-(3-hydroxy-3-isopropylazetidin-1-yl)cyclohexyl)ethyl)-2-methyl-N-((6-methyl-4-(methylthio)-2-oxo-1,2-dihydropyridin-3-yl)methyl)-1H-pyrrolo[2,3-b]pyridine-3-carboxamide] |  | > 100 |  | < 0.5 | 
CSc1cc(C)[nH]c(=O)c1CNC(=O)c1c(C)n([C@H](C)C2CCC(NC3COC3)CC2)c2ncccc12 (single isomer, unassigned) [62 (isomer 2)] |  |  |  | 0.5 to 5 | > 100
CSc1cc(C)[nH]c(=O)c1CNC(=O)c1c(C)n([C@@H](C)c2cnc(C)nc2)c2ccccc12 [Example 34, (S)-2-methyl-N-((6-methyl-4-(methylthio)-2-oxo-1,2-dihydropyridin-3-yl)methyl)-1-(1-(2-methylpyrimidin-5-yl)ethyl)-1H-indole-3-carboxamide] |  | > 100 |  | > 5 | 

Reference: US11459315B2, “Modulators of methyl modifying enzymes, compositions and uses thereof” (Constellation Pharmaceuticals, Inc., priority 2017, dated 2022)
